Experimental data published in ChEMBL document CHEMBL1201862, “PubChem BioAssay data set” (2004).
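Each compound was tested at five concentrations against cells in 96-well plates for 48 hours. Here, GI50 denotes the concentration required for 50% inhibition of growth.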 Active and inactive are the calls of the source. Rule as the data show it: active = GI50 up to about 1.1 µM and inactive = higher.

Columns and labels:
Assay in all cases: NCI anticancer screen, dose series, 48 h
U-251 = test system: U-251
EKVX = test system: EKVX
NCI-H226 = test system: NCI-H226
ACHN = test system: ACHN
NCI-H23 = test system: NCI-H23
SN12C = test system: SN12C
SF-539 = test system: SF-539
K562 = test system: K562
SK-MEL-28 = test system: SK-MEL-28
Hs-578T = test system: Hs-578T
SF-295 = test system: SF-295
MDA-N = test system: MDA-N
A549 = test system: A549
DU-145 = test system: DU-145
OVCAR-8 = test system: OVCAR-8
RXF 393 = test system: RXF 393
OVCAR-5 = test system: OVCAR-5
MDA-MB-231 = test system: MDA-MB-231

Measured: GI50

COc1cc(C(c2c(O)c3ccccc3oc2=O)c2c(O)c3ccccc3oc2=O)cc(Br)c1O
inactive: U-251 16.8 µM | EKVX 18.8 µM | NCI-H226 21.5 µM | ACHN 17.4 µM | NCI-H23 22.2 µM | SN12C 15.8 µM | SF-539 15.6 µM | K562 30.3 µM | SK-MEL-28 21.6 µM | Hs-578T 20.2 µM | SF-295 21.1 µM | MDA-N 18.4 µM | A549 18.4 µM | DU-145 17.4 µM | OVCAR-8 17.3 µM | RXF 393 17.4 µM | OVCAR-5 23.5 µM | MDA-MB-231 17.8 µM

Cc1cc(-c2nc3cc(O)ccc3s2)ccc1N
inactive: U-251 30.5 µM | EKVX 10.2 µM | NCI-H226 31.4 µM | ACHN 22.5 µM | NCI-H23 46.1 µM | SN12C 28.8 µM | SF-539 25.5 µM | K562 38.5 µM | SK-MEL-28 27.8 µM | Hs-578T 35.2 µM | SF-295 26 µM | MDA-N 29.4 µM | A549 37 µM | DU-145 39.8 µM | OVCAR-8 47.1 µM | RXF 393 27.5 µM | OVCAR-5 24.7 µM | MDA-MB-231 30 µM

c1ccc2c(Cc3[nH]c4ccccc4c3Cc3c[nH]c4ccccc34)c[nH]c2c1
inactive: U-251 2.88 µM | EKVX 2.61 µM | NCI-H226 6.08 µM | ACHN 14.5 µM | NCI-H23 2.1 µM | SN12C 1.77 µM | SF-539 2.56 µM | K562 2.33 µM | SK-MEL-28 6.21 µM | Hs-578T 1.47 µM | SF-295 4.3 µM | MDA-N 2.16 µM | A549 3.1 µM | DU-145 1.8 µM | OVCAR-8 4.09 µM | RXF 393 1.94 µM | OVCAR-5 2.85 µM | MDA-MB-231 2.12 µM

CC(C)N1CCN(c2ccc(OCC3COC(Cn4cncn4)(c4ccc(Cl)cc4Cl)O3)cc2)CC1 (configuration not stated) [TERCONAZOLE]
inactive: U-251 12.9 µM | EKVX 15.1 µM | NCI-H226 15 µM | ACHN 20.6 µM | NCI-H23 14.2 µM | SN12C 15.8 µM | SF-539 13.3 µM | K562 3.47 µM | SK-MEL-28 4.63 µM | Hs-578T 12.2 µM | SF-295 12.8 µM | MDA-N 4.86 µM | A549 > 35.8 µM | DU-145 16.3 µM | OVCAR-8 17.3 µM | RXF 393 11.6 µM | OVCAR-5 15 µM | MDA-MB-231 14 µM
